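Following 48 hours of exposure in 96-well plates, responses at five concentrations were used to interpolate endpoints linearly. GI50 = concentration required for 50% inhibition of growth.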 Calls of active or inactive are those of the source. No stated cut-off is given here; in the data, active = GI50 up to about 1.1 µM and inactive = higher.

Some test systems named below: IGROV-1; MCF7; PC-3; SF-295; 786-0; MOLT-4; OVCAR-5; M14; U-251; RPMI-8226; MDA-MB-435; NCI/ADR-RES; SF-268; DU-145; HOP-92; HCT-116; OVCAR-8; A549; UO-31.
Common to all, as to experiment: NCI tumour cell line growth inhibition, 48 h

For `CC(C#N)(c1ccccc1)N(CCc1ccccc1)C(=O)Oc1ccccc1` (stereo not given), the GI50 in the assay with IGROV-1 is > 100 µM (inactive); with MCF7, > 100 µM (inactive); with PC-3, > 100 µM (inactive); with SF-295 it was > 100 µM (inactive); in the assay with 786-0, 40.6 µM (inactive); in the assay on MOLT-4 it was > 100 µM (inactive). Also, the GI50 in the assay on OVCAR-5, in the assay on M14, in the assay on U-251, in the assay on RPMI-8226, in the assay on MDA-MB-435 and in the assay with NCI/ADR-RES was > 100 µM (inactive) throughout. The GI50 is > 100 µM (inactive) in the assay with SF-268; > 100 µM (inactive) in the assay on DU-145; 10.9 µM (inactive) in the assay with HOP-92; > 100 µM (inactive) in the assay on HCT-116; > 100 µM (inactive) in the assay with OVCAR-8; > 100 µM (inactive) in the assay with A549. For the same compound, the GI50 in the assay on UO-31 was > 100 µM (inactive).
As to `COc1cc(C2c3cc4c(cc3OC(N3CCCC3)C2C)OCO4)cc(OC)c1O` (stereo not given), the GI50 was 19.4 µM (inactive) in the assay with IGROV-1; 9.93 µM (inactive) in the assay on MCF7; 20.8 µM (inactive) in the assay on PC-3; 3.71 µM (inactive) in the assay with SF-295; 13.9 µM (inactive) with 786-0; 24.6 µM (inactive) in the assay with MOLT-4. Further, the GI50 in the assay with OVCAR-5 was 61.5 µM (inactive); in the assay on M14 it was 16 µM (inactive); in the assay on U-251 it was 11.6 µM (inactive); with RPMI-8226 it was 45.6 µM (inactive); with MDA-MB-435, 2.48 µM (inactive); in the assay on NCI/ADR-RES, 5.93 µM (inactive). The GI50 with SF-268 is 22.9 µM (inactive); with DU-145, 31.7 µM (inactive); in the assay with HOP-92 it was 19.4 µM (inactive); in the assay with HCT-116, 9.98 µM (inactive); in the assay with OVCAR-8 it was 24 µM (inactive); in the assay on A549 it was 19 µM (inactive). The GI50 with UO-31 is 44.3 µM (inactive).
Turning to `CCc1n[nH]c(=O)n1N`, the GI50 in the assay with IGROV-1, with MCF7, with PC-3, with SF-295, in the assay with 786-0 and with MOLT-4 was > 100 µM (inactive) throughout. Moreover, the GI50 in the assay on OVCAR-5, in the assay on M14, with U-251, with RPMI-8226, in the assay with MDA-MB-435 and in the assay on NCI/ADR-RES was > 100 µM (inactive) each time. Further, the GI50 with SF-268, in the assay with DU-145, in the assay with HOP-92, with HCT-116, with OVCAR-8 and with A549 was > 100 µM (inactive) in each case. The GI50 in the assay on UO-31 was > 100 µM (inactive).
In the case of `Cc1ccccc1/N=C/N(C)C`, the GI50 in the assay on IGROV-1 was 37.3 µM (inactive); in the assay on MCF7, 31.5 µM (inactive); in the assay with PC-3, 26.7 µM (inactive); in the assay on SF-295 it was 39.5 µM (inactive); with 786-0, 70.3 µM (inactive); in the assay on MOLT-4, 29.9 µM (inactive). Besides, the GI50 in the assay on OVCAR-5 is 72.8 µM (inactive); in the assay on M14, 99.3 µM (inactive); in the assay with U-251 it was 39.4 µM (inactive); with RPMI-8226, 13.3 µM (inactive); with MDA-MB-435, 42.1 µM (inactive); in the assay on NCI/ADR-RES, > 100 µM (inactive). Besides, the GI50 is 57.4 µM (inactive) in the assay with SF-268; 44.2 µM (inactive) in the assay with DU-145; 48.3 µM (inactive) with HOP-92; 33.8 µM (inactive) in the assay on HCT-116; 33.9 µM (inactive) in the assay with OVCAR-8; 39.6 µM (inactive) with A549. Further, the GI50 in the assay on UO-31 was 74.6 µM (inactive).
Take `CCOC(=O)CO/N=C1/C(=C2/C(=O)Nc3ccccc32)Nc2ccccc21`: the GI50 was 2.58 µM (inactive) in the assay on IGROV-1; 50.1 µM (inactive) in the assay on MCF7; 78.7 µM (inactive) in the assay on PC-3; 33.3 µM (inactive) with SF-295; 7.5 µM (inactive) with 786-0; 22 µM (inactive) with MOLT-4. The GI50 was > 100 µM (inactive) in the assay on OVCAR-5; > 100 µM (inactive) in the assay on M14; 6.78 µM (inactive) in the assay on U-251; > 100 µM (inactive) in the assay with RPMI-8226; > 100 µM (inactive) in the assay with MDA-MB-435; > 100 µM (inactive) in the assay on NCI/ADR-RES. In addition, the GI50 was 27 µM (inactive) in the assay on SF-268; > 100 µM (inactive) in the assay on DU-145; 16.9 µM (inactive) with HOP-92; 5.12 µM (inactive) in the assay with HCT-116; 6.21 µM (inactive) in the assay with OVCAR-8; 24.5 µM (inactive) with A549. Moreover, the GI50 in the assay on UO-31 was 86.7 µM (inactive).
Consider `N=C(N)NS(=O)(=O)c1ccc(NC(=O)c2cccc3c(NNc4ccc(S(=O)(=O)N=C(N)N)cc4)c4ccccc4nc23)cc1`, for which the GI50 is 51.5 µM (inactive) with IGROV-1; 29.9 µM (inactive) with MCF7; 61 µM (inactive) in the assay on PC-3; > 100 µM (inactive) in the assay with SF-295; 44.2 µM (inactive) in the assay on 786-0; 30.8 µM (inactive) in the assay on MOLT-4. Also, the GI50 in the assay with OVCAR-5 is > 100 µM (inactive); with M14 it was > 100 µM (inactive); with U-251 it was 28.4 µM (inactive); in the assay with RPMI-8226, 37.9 µM (inactive); in the assay on MDA-MB-435 it was 42.3 µM (inactive); in the assay with NCI/ADR-RES it was > 100 µM (inactive). The GI50 was 61.9 µM (inactive) in the assay on SF-268; > 100 µM (inactive) in the assay on DU-145; 47.4 µM (inactive) in the assay on HOP-92; 35.7 µM (inactive) in the assay on HCT-116; 53.5 µM (inactive) in the assay on OVCAR-8; > 100 µM (inactive) with A549. Besides, in the assay on UO-31, the GI50 is > 100 µM (inactive).
Turning to `Cc1cc(C)c2c(=O)n(CC(O)CN3CCN(c4ncccn4)CC3)sc2n1` (stereo not given), the GI50 is 29.4 µM (inactive) in the assay with IGROV-1; 17.9 µM (inactive) with MCF7; 18.7 µM (inactive) in the assay on PC-3; > 100 µM (inactive) in the assay with SF-295; 14.5 µM (inactive) in the assay on 786-0; 4 µM (inactive) in the assay on MOLT-4. The GI50 in the assay on OVCAR-5 is 16.5 µM (inactive); in the assay with M14, 15.7 µM (inactive); in the assay with U-251, 17.8 µM (inactive); in the assay on RPMI-8226, 4.71 µM (inactive); in the assay with MDA-MB-435 it was 16.6 µM (inactive); in the assay with NCI/ADR-RES, 31 µM (inactive). In addition, the GI50 in the assay on SF-268 was 18.6 µM (inactive); in the assay with DU-145, 16.6 µM (inactive); in the assay with HOP-92, 29 µM (inactive); in the assay with HCT-116, 15.6 µM (inactive); in the assay with OVCAR-8, 19.2 µM (inactive); in the assay with A549, 17.5 µM (inactive). In addition, the GI50 in the assay with UO-31 was 16.4 µM (inactive).
Regarding `O=C(/C=C(\Nc1ccccc1O)c1ccc(Br)cc1)C(Cl)(Cl)Cl`, the GI50 in the assay with IGROV-1 is 10.3 µM (inactive); in the assay on MCF7, 5.21 µM (inactive); in the assay with PC-3, 2.47 µM (inactive); with SF-295, 6.12 µM (inactive); in the assay on 786-0, 14.4 µM (inactive); with MOLT-4, 13.9 µM (inactive). For the same compound, the GI50 was 12.1 µM (inactive) with OVCAR-5; 15.5 µM (inactive) with M14; 3.74 µM (inactive) in the assay with U-251; 1.79 µM (inactive) in the assay on RPMI-8226; 8.89 µM (inactive) with MDA-MB-435; 11.4 µM (inactive) in the assay with NCI/ADR-RES. Moreover, the GI50 is 11.7 µM (inactive) in the assay on SF-268; 3.03 µM (inactive) in the assay on DU-145; 2.6 µM (inactive) in the assay on HOP-92; 10.5 µM (inactive) with HCT-116; 12.6 µM (inactive) in the assay with OVCAR-8; 2.75 µM (inactive) in the assay on A549. In addition, in the assay on UO-31, the GI50 was 2.68 µM (inactive).
With `O=C1c2c(Br)sc(Br)c2[C@H]2NC(=S)O[C@@H]12`, the GI50 with IGROV-1 is 16.7 µM (inactive); with MCF7, 16.1 µM (inactive); with PC-3 it was 14.5 µM (inactive); with SF-295 it was 20.6 µM (inactive); in the assay with 786-0, 14.2 µM (inactive); in the assay with MOLT-4, 1.32 µM (inactive). Also, the GI50 was 19.2 µM (inactive) in the assay on OVCAR-5; 14.3 µM (inactive) with M14; 13.2 µM (inactive) with U-251; 7.38 µM (inactive) in the assay on RPMI-8226; 13.8 µM (inactive) in the assay with MDA-MB-435; 21.4 µM (inactive) in the assay with NCI/ADR-RES. In addition, the GI50 in the assay with SF-268 is 15 µM (inactive); in the assay on DU-145, 16 µM (inactive); in the assay on HOP-92, 18 µM (inactive); in the assay on HCT-116, 10.7 µM (inactive); in the assay on OVCAR-8, 9.82 µM (inactive); in the assay on A549, 20.8 µM (inactive). Further, the GI50 in the assay on UO-31 was 15.3 µM (inactive).
Turning to `C[C@@]12C(=O)OC(=O)[C@]1(C)[C@H]1CC[C@@H]2O1` [CANTHARIDIN], the GI50 with IGROV-1 is 2.16 µM (inactive); in the assay on MCF7, 7.76 µM (inactive); in the assay on PC-3, 0.279 µM (active); in the assay with SF-295 it was 1.37 µM (inactive); with 786-0, 1.74 µM (inactive); in the assay on MOLT-4, 9.79 µM (inactive). The GI50 is 2.45 µM (inactive) in the assay on OVCAR-5; 1.7 µM (inactive) in the assay on M14; 1.41 µM (inactive) in the assay with U-251; 2.08 µM (inactive) in the assay on RPMI-8226; 1.89 µM (inactive) in the assay with MDA-MB-435; 6.5 µM (inactive) with NCI/ADR-RES. Moreover, the GI50 with SF-268 is 1.77 µM (inactive); with DU-145, 1.02 µM (active); in the assay with HOP-92, 0.61 µM (active); in the assay on HCT-116, 1.98 µM (inactive); in the assay on OVCAR-8, 5.98 µM (inactive); with A549 it was 0.918 µM (active). The GI50 with UO-31 is 2.64 µM (inactive).

The record behind these values is ChEMBL document CHEMBL1201862, “PubChem BioAssay data set” (2004).
